We go through four molecules from patent publication US5668128A, “Aziridine derivatives, their production and use” (Takeda Chemical Industries, Ltd., priority 1994, dated 1997).

For one data set, the system named is mice. The data set is described as follows: Toxicity study. The settings on record: intravenously or intraperitoneally, 1,000 mg/kg. The data set is classed as in vivo. How it is done:
Compound 4 caused no death in mice when it was intravenously or intraperitoneally administered at 1,000 mg/kg.

The target in data set [1] is T1, human recombinant cathepsin L (Homo sapiens, UniProt P07711).
T1 construct: they were identified as a precursor of human cathepsin L and a product processed therefrom, estimated from these molecular weights; made in house; host or cells: mouse myeloma Sp2/0 cells transformed with pTBN-HCLneo (Sp-HCL26); purified from serum-free culture supernatant on CM-Sephadex C-50 and Mono S
T1 sequence (P07711 114-333): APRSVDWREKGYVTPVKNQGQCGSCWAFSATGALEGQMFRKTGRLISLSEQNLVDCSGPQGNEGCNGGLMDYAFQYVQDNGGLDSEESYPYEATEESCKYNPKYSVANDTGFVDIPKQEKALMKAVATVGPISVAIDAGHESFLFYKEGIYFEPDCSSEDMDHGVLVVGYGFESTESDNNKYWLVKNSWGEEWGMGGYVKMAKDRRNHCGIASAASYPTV
In words: Determination of cathepsin L inhibitory activity. The note with it: pH 5.5, 37° C., 20 minutes, Z-Phe-Arg-7MCA substrate; read-out: Inhibitory activity potency IC50 (ng/ml) Cathepsin L (converted). The class given is biochemical. The procedure:
The bioactivities of the compounds of this invention are described below. The compounds [I] or salts thereof have activities of inhibiting cathepsin L and cathepsin B, and of potently inhibiting thiol protease. Their inhibitory activities against cathepsin L were determined by the methods described below.
Determination of cathepsin L inhibitory activity
To 75 μl of a reaction mixture containing 1 ng of human recombinant cathepsin L (as produced in Reference Examples 1 through 7 below), 2 μM of dithiothreitol (hereinafter abbreviated as DTT), 1 mM of ethylenediamine tetraacetate disodium salt, a 0.1M sodium acetate buffer solution (pH 5.5) and various concentrations of test samples, 25 μl of 20 μM benzyloxycarbonyl-L-phenylalanyl-L-arginine-4-methylcoumaryl-7-amide (hereinafter abbreviated as Z-Phe-Arg-7MCA, manufactured by Peptide Institute) was added to initiate the reaction. After incubation at 37° C. for 20 minutes, 100 μl of a reaction stopper solution containing 100 mM sodium monochloroacetate was added. The amount of liberated 4-methyl-7-aminocoumarin was determined at an excitation wavelength of 365 nm and a fluorescence wavelength of 450 nm, using a fluorophotometer (FCA:manufactured by Baxter Travenol). The sample concentration required to cause 50% inhibition was expressed as the IC50 value, with the fluorescence value obtained from the same reaction in the absence of the sample taken as 100%.

In data set [2] the test system is bone resorption as enhanced by PTH (parathyroid hormone). In words: Determination of bone resorption suppressive activity (PTH-stimulated mouse femur culture). The class given is cell-based, female BALB/c mice. The settings on record: 168 h, test compound 10 μg/ml, PTH 1 μM, cultured 7 days. How it is done: The compounds [I] or salts thereof of this invention show suppressive action against bone resorption as enhanced by PTH (parathyroid hormone), and the action was determined by method described below. Determination of bone resorption suppressive activity
Femurs were aseptically isolated from female BALB/c mice at 8-10 weeks of age. After the bone marrow cavity was washed with a Ham F12 medium containing 10 weight % thermally inactivated fetal calf serum, 100 unit/ml penicillin G and 100 unit/ml streptomycin (hereinafter referred to as culture broth), each femur was added to 1 ml of the culture broth and precultured for 3 hours at 37° C. in the presence of 5% carbon dioxide and 95% air. Each bone was transferred to 1 ml of the culture broth supplemented with PTH (manufactured by Peptide Institute, Inc., final concentration 1 μM) and the test compound (final concentration 10 μg/ml) and cultured for 7 more days, after which the total calcium content in the culture broth was determined using Calcium E-Test Wako (manufactured by Wako Pure Chemical Industries, Ltd.). The bone resorption suppressive activity of the test compound was calculated using the following equation.
Bone resorption suppressive activity (%)=100×(Cp-Cs)/(Cp-Cc)
Cc: Total calcium content in the culture broth containing neither PTH nor test compound
Cp: Total calcium content in the culture broth containing PTH […]

The structures appear in SMILES notation. Counter-ions that a name gives are not always drawn.

Take `CC(C)CCNC(=O)[C@H](Cc1ccccc1)NC(=O)[C@H]1N[C@@H]1C(=O)[O-].[Na+]` [Compound 4, N-[N-[(2S,3S)-3-Carboxyaziridine-2-carbonyl]-L-phenylalanyl]isopentylamine sodium salt]: the death in mice result in the data set on mice was “no death”. Further, the IC50 in data set [1] was 13.5 nM. On to `CCN1[C@H](C(=O)O)[C@H]1C(=O)N[C@@H](Cc1ccccc1)C(=O)NCCC(C)C` (stereo partly drawn) [Compound 45, N-[N-[(2S,3S)-N-Ethyl-3-Carboxyaziridine-2-carbonyl]-L-phenylalanyl]isopentylamine Sodium Salt], for which the IC50 in data set [1] was 0.252 nM. In the case of `NCCCCNC(=O)[C@H](Cc1ccccc1)NC(=O)[C@H]1N[C@@H]1C(=O)O` [Compound 7, N-[N-[(2S,3S)-3-carboxyaziridine-2-carbonyl]-L-phenylalanyl]-1,4-diaminobutane], in data set [2], the activity at 10 µg/mL came out at 99%. Moreover, the IC50 in data set [1] is 8.61 nM. Turning to `CC(C)CCNC(=O)[C@H](Cc1ccccc1)NC(=O)[C@@H]1[C@@H](C(=O)O)N1C` (stereo partly drawn) [Compound 43, N-[N-[(2S,3S)-N-Methyl-3-carboxyaziridine-2-carbonyl]-L-phenylalanyl]isopentylamine Sodium Salt], the IC50 in data set [1] was 0.522 nM.
